Experimental findings from US11186607B1, “Pleuromutilin ursodeoxycholic acid ester with antibacterial activity and a method of preparing the same” (Xi'an Taikomed Pharmaceutical Technology Co., Ltd., priority 2020, dated 2021) are described below.

Common to all, as to format: cell-based, Staphylococcus aureus
One test has as its system MRSA-171. Briefly: paper diffusion drug sensitivity test, MRSA-171. The settings on record: for Zone of inhibition: MRSA-171, drug sensitive paper 30 μg/tablet, LB plate, 37° C., 24 h; for inhibitory effect (in words): multi-drug resistant Staphylococcus aureus 171, summary of FIGS. 1-3 and Table 1. Here is the method: [Worded in the source for another organism; this organism is reported under the same test.] (§1) The antimicrobial efficacy was determined by a paper diffusion drug sensitivity test.
(§2) Experimental strains: multi-resistant Staphylococcus aureus 206, multi-resistant Staphylococcus aureus 575, multi-resistant Staphylococcus aureus 596. The experimental strains were provided by Huashan Hospital Affiliated to Fudan University (Institute of Antibiotic of Fudan University).
(§3) Drug sensitive paper: The drug sensitive paper was a special drug sensitive paper with a diameter of 6.35 mm and a water absorption of 0.02 mL. The control drug was vancomycin (30 μg/tablet); the test drugs were pleuromulin (30 μg/tablet), ursodeoxycholic acid (30 μg/tablet) and pleuromulin ursodeoxycholic acid ester (30 μg/tablet).
(§4) The experimental strains were inoculated in non-selective medium and placed in air at 37° C. for 24 h. Pick a single colony that grows well and inoculate it into broth medium, incubate at 35° C.±2° C. for 6 hours, and use LA broth medium to calibrate the concentration of the bacterial solution to 0.5 Mie turbidimetric tube (1.5×10^8 CFU/mL). A bacterial suspension is obtained.
(§5) Weigh the LB dry powder, sterilize at 103.4 Kpa, 121.3° C. high-pressure steam for 15 min, and then put it in a 40° C.-50° C. water bath. Place a sterile empty plate (inner diameter 9 cm) on the surface of the ultra-clean table water table, shake and shake LB, and then pour the plate. The thickness of each plate is 3 mm to 4 mm. After the plate is cooled at room temperature, store it in the refrigerator at 2° C.-8° C. Use a sterile cotton swab to dip the bacterial solution, and evenly coat the surface of the LB plate 3 times. After inoculation of the bacterial suspension, the LB plate was dried at room temperature for 3 min to 5 min. Use sterile forceps to closely attach the antibacterial drug paper to the dish. Put the dish upside down and place it in a 37° C. incubator for 24 h. Observe the result and measure the diameter. Taking 0.5% DMSO solution as a negative control, the antibacterial activity is expressed by the diameter of the inhibition zone. The inhibition zone ≥17 mm, sensitive; the inhibition zone is 15 mm˜16 mm, intermediary; the inhibition zone ≤14 mm, drug resistance.

For the next test, the system named is MRSA-596. Briefly: paper diffusion drug sensitivity test, MRSA-596. The settings on record: for Zone of inhibition: MRSA-596, drug sensitive paper 30 μg/tablet, LB plate, 37° C., 24 h; for inhibitory effect (in words): multi-drug resistant Staphylococcus aureus 596, summary of FIGS. 1-3 and Table 1. Here is the method: as §1, §2, §3, §4, §5
For the next test, the system named is MRSA-575. Briefly: paper diffusion drug sensitivity test, MRSA-575. Conditions: for Zone of inhibition: MRSA-575, drug sensitive paper 30 μg/tablet, LB plate, 37° C., 24 h; for inhibitory effect (in words): multi-drug resistant Staphylococcus aureus 575, summary of FIGS. 1-3 and Table 1. As for the experimental part:
as §1, §2, §3, §4, §5

For the compound `C=C[C@]1(C)C[C@@H](OC(=O)COC(=O)CC[C@@H](C)[C@H]2CCC3[C@@H]4[C@@H](O)C[C@@H]5C[C@H](O)CC[C@]5(C)[C@H]4CC[C@@]32C)[C@]2(C)CC[C@@H](C)[C@@]3(CCC(=O)[C@@H]23)[C@@H](C)[C@@H]1O` (stereo partly drawn) [Pleuromulin ursodeoxycholic acid ester, (4R)-2-(((3aS,4R,5S,6S,8R,9R,9aR,12R)-5-hydroxy-4,6,9,12-tetramethyl-1-oxo-6-vinyldecahydro-3a,9-propanocyclopenta[8]annulen-8-yl)oxy)-2-oxoethyl 4-((3R,5 S,7 S, 8R,9 S, 10 S,13R,17R)-3,7-dihydroxy-10,13-dimethylhexadecahydro-1H-cyclopenta[a]phenanthren-17-yl)pentanoate], the Zone of inhibition in the test with MRSA-171 is 11 mm; with MRSA-596, 12 mm; with MRSA-575 it was 13 mm; with MRSA-575 (listed as pleuromutilin ursodeoxycholic acid ester) it was “up to 13 mm”. Moreover, the “inhibitory effect (in words)” value with MRSA-171, in the test on MRSA-596 and in the test with MRSA-575 was “strong inhibitory effects” each time.
With `C=C[C@]1(C)C[C@@H](OC(=O)CO)[C@]2(C)[C@H](C)CC[C@]3(CCC(=O)[C@H]32)[C@@H](C)[C@@H]1O` [Pleuromulin], the Zone of inhibition in the test with MRSA-171, with MRSA-596 and with MRSA-575 was 0 mm throughout. Besides, the “inhibitory effect (in words)” value in the test on MRSA-171, in the test with MRSA-596 and in the test with MRSA-575 was “no inhibitory effect” throughout.
As for `C[C@H](CCC(=O)O)[C@H]1CC[C@H]2[C@@H]3[C@@H](O)C[C@@H]4C[C@H](O)CC[C@]4(C)[C@H]3CC[C@]12C` [Ursodeoxycholic acid], the Zone of inhibition in the test with MRSA-171, with MRSA-596 and in the test with MRSA-575 was 0 mm throughout. The “inhibitory effect (in words)” value in the test on MRSA-171, in the test with MRSA-596 and in the test with MRSA-575 was “no inhibitory effect” each time.
Consider `CN[C@H](CC(C)C)C(=O)N[C@H]1C(=O)N[C@@H](CC(N)=O)C(=O)N[C@H]2C(=O)N[C@H]3C(=O)N[C@H](C(=O)N[C@H](C(=O)O)c4cc(O)cc(O)c4-c4cc3ccc4O)[C@H](O)c3ccc(c(Cl)c3)Oc3cc2cc(c3O[C@@H]2O[C@H](CO)[C@@H](O)[C@H](O)[C@H]2O[C@H]2C[C@](C)(N)[C@H](O)[C@H](C)O2)Oc2ccc(cc2Cl)[C@H]1O` [Vancomycin], for which the results for the Zone of inhibition with MRSA-171, in the test with MRSA-596 and in the test on MRSA-575 were 17 mm, 23 mm and 17 mm, respectively.
